Columns and labels:
[1] = target: T1, BACE2 (Rattus norvegicus, UniProt Q6IE75); assay: Assay for BACE inhibition by measuring cellular TMEM27 cleavage; assay type: cell-based; conditions: INS-TMEM27 cells (INS1e-derived); shed TMEM27 by ELISA; read-out: BACE2 cell act. IC50
T1 construct: endogenous cellular BACE2 in the Ins1e rat cell line; endogenous in cells; host or cells: INS-TMEM27 (INS1e-derived rat cell line with TetOn-inducible full-length hTMEM27)
T1 sequence (Q6IE75 63-514): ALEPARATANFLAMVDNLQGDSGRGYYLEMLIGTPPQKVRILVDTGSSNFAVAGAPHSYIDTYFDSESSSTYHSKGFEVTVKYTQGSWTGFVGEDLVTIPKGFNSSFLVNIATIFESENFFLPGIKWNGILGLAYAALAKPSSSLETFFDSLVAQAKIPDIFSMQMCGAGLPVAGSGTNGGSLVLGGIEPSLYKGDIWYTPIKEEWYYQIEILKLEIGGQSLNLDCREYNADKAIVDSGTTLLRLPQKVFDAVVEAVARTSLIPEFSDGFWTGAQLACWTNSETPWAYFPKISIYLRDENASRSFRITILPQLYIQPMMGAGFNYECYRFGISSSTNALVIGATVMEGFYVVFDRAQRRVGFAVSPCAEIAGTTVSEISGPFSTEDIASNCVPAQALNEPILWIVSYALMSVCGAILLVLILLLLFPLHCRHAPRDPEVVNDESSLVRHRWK
Description: Assay for BACE Inhibition by Measuring Cellular TMEM27 Cleavage:
The assay uses the principle of inhibition of human TMEM27 cleavage by endogenous cellular BACE2 in the Ins1e rat cell line and shedding from the cell surface into the culture medium, followed by detection in an ELISA assay. Inhibition of BACE2 prevents the cleavage and shedding in a dose-dependent manner.
The stable cell line “INS-TMEM27” represents an INS1e-derived cell line with inducible expression (using the TetOn system) of full-length hTMEM27 in a doxycycline-dependent manner. The cells are cultured throughout the experiment in RPMI1640+Glutamax (Invitrogen) Penicillin/Streptomycin, 10% Fetal bovine serum, […] pyruvate, […] beta-mercatptoethanol, 100 micrograms/ml G418 and 100 microgram/ml hygromycin and are grown inadherent culture at 37° C. in a standard CO2 cell culture incubator. INS-TMEM27 cells are seeded in 96-well plates. After 2 days in culture, BACE2 inhibitor is added in a range of concentrations as required by the assay and after a further two hours, doxycycline is added to a final concentration of 500 ng/ml. The cells are incubated for a further 46 hours and the supernatant harvested for detection of shed TMEM27.
An ELISA assay (using a pair of mouse anti-human-TMEM27 antibodies, raised against the extracellular domain of TMEM27) is used for detection of TMEM27 in the culture medium. An EC50 for BACE2 inhibition is calculated using the ELISA readout for each inhibitor concentration with standard curve-fitting software such as XLFit for the Excel spreadsheet program.

[2] = target: T2, BACE1 (Homo sapiens, UniProt P56817); assay: Cellular Aβ-lowering assay (Aβ40 ELISA); assay type: cell-based; conditions: HEK293 cells stably expressing human APP695; Aβ40 in culture supernatant; read-out: BACE1 cell act. Aβ40 IC50
T2 construct: Human HEK293 cells which are stably transfected with a vector expressing a cDNA of the human APP wt gene (APP695); endogenous in cells; host or cells: HEK293 stably transfected with human APP695 wt
Method: Cellular Aβ-Lowering Assay:
Human HEK293 cells which are stably transfected with a vector expressing a cDNA of the human APP wt gene (APP695) were used to assess the potency of the compounds in a cellular assay. The cells were seeded in 96-well microtiter plates in cell culture medium (Iscove, plus 10% (v/v) fetal bovine serum, glutamine, penicillin/streptomycin) to about 80% confluence and the compounds were added at a 10× concentration in 1/10 volume of medium without FCS containing 8% DMSO (final concentration of DMSO was kept at 0.8% v/v). After 18-20 hrs incubation at 37° C. and 5% CO2 in a humidified incubator the culture supernatant was harvested for the determination of Aβ40 concentrations. […] Subsequently the wells of the microtiter plate were washed extensively with Tris-buffered saline containing 0.05% Tween 20 and the assay was developed with tetramethylbenzidine/H2O2 in citric acid buffer. After stopping the reaction with one volume 1 NH2SO4 the reaction was measured in an ELISA reader at 450 nm wavelength. The concentrations of Aβ in the culture supernatants were calculated from a standard curve obtained with known amounts of pure Aβ peptide.

T2 sequence (P56817 46-501): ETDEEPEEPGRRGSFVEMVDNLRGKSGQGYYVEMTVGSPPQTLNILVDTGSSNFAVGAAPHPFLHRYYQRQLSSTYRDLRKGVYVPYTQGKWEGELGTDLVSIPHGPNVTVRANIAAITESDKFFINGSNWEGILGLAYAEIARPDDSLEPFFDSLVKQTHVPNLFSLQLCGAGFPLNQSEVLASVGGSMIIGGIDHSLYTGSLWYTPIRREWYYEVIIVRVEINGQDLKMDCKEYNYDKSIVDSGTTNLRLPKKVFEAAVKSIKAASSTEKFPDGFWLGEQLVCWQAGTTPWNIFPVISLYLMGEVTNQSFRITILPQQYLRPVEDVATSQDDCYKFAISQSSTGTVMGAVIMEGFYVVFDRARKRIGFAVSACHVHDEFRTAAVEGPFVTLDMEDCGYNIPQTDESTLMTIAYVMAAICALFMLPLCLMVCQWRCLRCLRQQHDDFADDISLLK

Compound | IC50 [1] [nM] | IC50 [2] [nM]
C[C@]1(c2cc(NC(=O)C3CC3(F)F)ccc2F)N=C(N)OCC1(F)F (mixture of isomers) [Example 74, (RS)-2,2-Difluoro-cyclopropanecarboxylic acid [3-((R)-2-amino-5,5-difluoro-4-methyl-5,6-dihydro-4H-[1,3]oxazin-4-yl)-4-fluoro-phenyl]-amide] | 590 | 510
C[C@]1(c2cc(NC(=O)c3ncc(F)cc3F)ccc2F)N=C(N)OCC1(F)F [Example 4, 3,5-Difluoro-pyridine-2-carboxylic acid [3-((R)-2-amino-5,5-difluoro-4-methyl-5,6-dihydro-4H-[1,3]oxazin-4-yl)-4-fluoro-phenyl]-amide] | 26 | 31
C[C@]1(c2cc(NC(=O)c3ncc(F)cc3Cl)ccc2F)N=C(N)OCC1(F)F [Example 7, 3-Chloro-5-fluoro-pyridine-2-carboxylic acid [3-((R)-2-amino-5,5-difluoro-4-methyl-5,6-dihydro-4H-[1,3]oxazin-4-yl)-4-fluoro-phenyl]-amide] | 49 | 41
Cc1cc(Cl)cnc1C(=O)Nc1ccc(F)c([C@@]2(C)N=C(N)OCC2(F)F)c1 [Example 13, 5-Chloro-3-methyl-pyridine-2-carboxylic acid [3-((R)-2-amino-5,5-difluoro-4-methyl-5,6-dihydro-4H-[1,3]oxazin-4-yl)-4-fluoro-phenyl]-amide] | 24 | –
C[C@]1(c2cc(NC(=O)c3ncc(Cl)cc3F)ccc2F)N=C(N)OCC1(F)F [Example 15, 5-Chloro-3-fluoro-pyridine-2-carboxylic acid [3-((R)-2-amino-5,5-difluoro-4-methyl-5,6-dihydro-4H-[1,3]oxazin-4-yl)-4-fluoro-phenyl]-amide] | 52 | 9
Cn1cc(Cl)c(C(=O)Nc2ccc(F)c([C@@]3(C)N=C(N)OCC3(F)F)c2)n1 [Example 18, 4-Chloro-1-methyl-1H-pyrazole-3-carboxylic acid [3-((R)-2-amino-5,5-difluoro-4-methyl-5,6-dihydro-4H-[1,3]oxazin-4-yl)-4-fluoro-phenyl]-amide] | 15 | –
CC1(C)OC(N)=N[C@](C)(c2cc(NC(=O)c3ccc(Cl)cn3)ccc2F)C1(F)F [Example 19, 5-Chloro-pyridine-2-carboxylic acid [3-((R)-2-amino-5,5-difluoro-4,6,6-trimethyl-5,6-dihydro-4H-[1,3]oxazin-4-yl)-4-fluoro-phenyl]-amide] | 120 | 70
CC1(C)OC(N)=N[C@](C)(c2cc(NC(=O)c3ncc(Cl)cc3Cl)ccc2F)C1(F)F [Example 23, 3,5-Dichloro-pyridine-2-carboxylic acid [3-((R)-2-amino-5,5-difluoro-4,6,6-trimethyl-5,6-dihydro-4H-[1,3]oxazin-4-yl)-4-fluoro-phenyl]-amide] | 66 | 11
CC1(C)OC(N)=N[C@](C)(c2cc(NC(=O)c3ncc(Cl)cc3F)ccc2F)C1(F)F [Example 24, 5-Chloro-3-fluoro-pyridine-2-carboxylic acid [3-((R)-2-amino-5,5-difluoro-4,6,6-trimethyl-5,6-dihydro-4H-[1,3]oxazin-4-yl)-4-fluoro-phenyl]-amide] | 70 | 12

Continued, values first:

IC50 [1] [nM] | IC50 [2] [nM] | Compound
56 | – | C[C@]1(c2cc(NC(=O)c3ccc(F)cn3)ccc2F)N=C(N)OCC1(F)F [Example 2, 5-Fluoro-pyridine-2-carboxylic acid [3-((R)-2-amino-5,5-difluoro-4-methyl-5,6-dihydro-4H-[1,3]oxazin-4-yl)-4-fluoro-phenyl]-amide]
52 | 87 | C[C@]1(c2cc(NC(=O)c3ncccc3Cl)ccc2F)N=C(N)OCC1(F)F [Example 3, 3-Chloro-pyridine-2-carboxylic acid [3-((R)-2-amino-5,5-difluoro-4-methyl-5,6-dihydro-4H-[1,3]oxazin-4-yl)-4-fluoro-phenyl]-amide]
330 | 180 | C[C@]1(c2cc(NC(=O)c3ncccc3C(F)(F)F)ccc2F)N=C(N)OCC1(F)F [Example 6, 3-Trifluoromethyl-pyridine-2-carboxylic acid [3-((R)-2-amino-5,5-difluoro-4-methyl-5,6-dihydro-4H-[1,3]oxazin-4-yl)-4-fluoro-phenyl]-amide]
82 | – | C[C@]1(c2cc(NC(=O)c3ccccn3)ccc2F)N=C(N)OCC1(F)F [Example 9, Pyridine-2-carboxylic acid [3-((R)-2-amino-5,5-difluoro-4-methyl-5,6-dihydro-4H-[1,3]oxazin-4-yl)-4-fluoro-phenyl]-amide]
52 | 87 | C[C@]1(c2cc(NC(=O)c3ncccc3F)ccc2F)N=C(N)OCC1(F)F [Example 10, 3-Fluoro-pyridine-2-carboxylic acid [3-((R)-2-amino-5,5-difluoro-4-methyl-5,6-dihydro-4H-[1,3]oxazin-4-yl)-4-fluoro-phenyl]-amide]
69 | 23 | C[C@]1(c2cc(NC(=O)c3ncc(Cl)cn3)ccc2F)N=C(N)OCC1(F)F [Example 12, 5-Chloro-pyrimidine-2-carboxylic acid [3-((R)-2-amino-5,5-difluoro-4-methyl-5,6-dihydro-4H-[1,3]oxazin-4-yl)-4-fluoro-phenyl]-amide]
19200 | 290 | C[C@]1(c2cc(NC(=O)c3ccc(OCC(F)(F)F)cn3)ccc2F)N=C(N)OCC1(F)F [Example 14, 5-(2,2,2-Trifluoro-ethoxy)-pyridine-2-carboxylic acid [3-((R)-2-amino-5,5-difluoro-4-methyl-5,6-dihydro-4H-[1,3]oxazin-4-yl)-4-fluoro-phenyl]-amide]
1540 | 91 | C[C@]1(c2cc(NC(=O)c3ncc(C(F)(F)F)cn3)ccc2F)N=C(N)OCC1(F)F [Example 16, 5-Trifluoromethyl-pyrimidine-2-carboxylic acid [3-((R)-2-amino-5,5-difluoro-4-methyl-5,6-dihydro-4H-[1,3]oxazin-4-yl)-4-fluoro-phenyl]-amide]
1220 | 86 | C[C@]1(c2cc(NC(=O)c3cnc(C(F)(F)F)cn3)ccc2F)N=C(N)OCC1(F)F [Example 17, 5-Trifluoromethyl-pyrazine-2-carboxylic acid [3-((R)-2-amino-5,5-difluoro-4-methyl-5,6-dihydro-4H-[1,3]oxazin-4-yl)-4-fluoro-phenyl]-amide]
2250 | 25 | CC1(C)OC(N)=N[C@](C)(c2cc(NC(=O)c3ccc(C(F)(F)F)cn3)ccc2F)C1(F)F [Example 25, 5-Trifluoromethyl-pyridine-2-carboxylic acid [3-((R)-2-amino-5,5-difluoro-4,6,6-trimethyl-5,6-dihydro-4H-[1,3]oxazin-4-yl)-4-fluoro-phenyl]-amide]
13 | – | C[C@]1(c2cc(NC(=O)c3ccn(C(F)F)n3)ccc2F)N=C(N)OCC1(F)F [Example 64, 1-Difluoromethyl-1H-pyrazole-3-carboxylic acid [3-((R)-2-amino-5,5-difluoro-4-methyl-5,6-dihydro-4H-[1,3]oxazin-4-yl)-4-fluoro-phenyl]-amide]
